The source of these data is patent US8062859B2, “Method for screening anticancer substances, set or kit for implementing said method” (Centre National de la Recherche Scientifique (CNRS), priority 2005, dated 2011).

Holding throughout (type): cell-based
The subject of assay [1] is SW620 metastatic cell line. The experiment in a line: Invasion test (Matrigel, FluoroBlock inserts). As for the experimental part:
2. Invasion Test 1—On D-2, thaw the Matrigel at 4° C. all night 2—On D-1 measure the Matrigel into insert chambers: Put all the necessary material on ice (Matrigel, culture medium, tips, eppendorfs, etc. . . . ). Put the FluoroBlock inserts (FALCON, ref: 351152) in the 24-well plates (FALCON, ref: 353504). Dilute the Matrigel to 2 mg/ml in cold serumless medium (if the cells are to be subjected to a treatment X, include the product in the Matrigel, e.g.: Y 27632) Aliquot 100 μl of 2 mg/ml Matrigel per insert avoiding creating bubbles. Leave O/N at 37° C. in a humid atmosphere (in an incubator) 3—On D day, plate the cells on the Matrigel: First put 700 μl of 10% serum medium in a 24-well plate and transfer the inserts to this plate. Trypsinate the cells (previously treated or not . . . ) and take them up in 2% serum medium. Plate 50 000 cells per insert in 200 μl of 2% serum medium on the Matrigel (optionally put Y27632 into the plated cells). 4—The migration time varies depending on the cell type but generally allowing them to migrate for 8 hours fixing a point every 2 hours seems suitable. To fix them, transfer the inserts to a 24-well plate containing 1 ml of formalin (3.7% formaldehyde in PBS), suck up the culture medium inside the chambers and also add formalin (very important, prevents the cells from continuing to migrate in the Matrigel). […] Read the OD at 490 nm.

The subject of assay [2] is SKCo-1 metastatic cell line. Briefly: Localisation of E-cadherin at intercellular junctions (immunofluorescent labelling). Conditions: SKCo-1, Y-27632 10 μM for 48 hours, FIG. 1. As for the experimental part: (§1) 1. Protocol for Immunofluorescent Labelling of e-Cadherin 1—The cells are plated in 6-well plates, each well containing 3 glass coverslips 10 mm in diameter. 2—Place the cells in 0% Serum for 18 to 24 hours then treat them or not with Y27 10 μM+PDGF 5 ng/ml for 36 to 48 h. 3—Fix the cells for 10 minutes with formalin (3.7% formaldehyde in PBS). 4—Saturation, 10 minutes PBS-BSA 5—Incubation of the primary antibody, diluted to 1:500 in PBS-BSA, 2 hours at 37° C. (Mouse anti E-cadherin, ZYMED, ref: 13-1700) 6—2 rapid washes in PBS-0.1% Tween 7—Incubation of the secondary antibody (Alexa Fluor® 488 F(ab′)2 fragment of goat anti mouse IgG, Molecular Probes ref: A-11017), diluted to 1:2000 in PBS-BSA, 30 minutes at 37° C. 8—2 rapid washes in PBS-0.1% Tween 9—Mounting in Mowiol medium between the slide and the coverslip.

For assay [3], the system named is CoLo205 metastatic cell line. The description is as above. The settings on record: CoLo205, Y-27632 10 μM for 48 hours, FIG. 1. As for the experimental part:
as §1

Assay [4] concerns SW620 metastatic cell line. Briefly: Spreading ability of the cells (flat versus round phenotype). As for the experimental part:
FIG. 2 illustrates the effect of the treatment of metastatic cells of the SW620 cell line by the inhibitor Y-27632 on the spreading ability of the cells (FIG. 2A) and on the formation of E-cadherin type adhesion junctions (FIG. 2B). In FIGS. 2 A and 2 B: on the left: control cells without inhibitor; on the right: cells incubated with Y-27632. On the x-axis: the percentage of flat cells (FIG. 2A) or the percentage of cells forming E-cadherin type intercellular junctions (FIG. 2B). 2—Place the cells in 0% Serum for 18 to 24 hours then treat them or not with Y27 10 μM+PDGF 5 ng/ml for 36 to 48 h.

Assay [5] has as its system SW620 metastatic cell line. Briefly: Formation of E-cadherin type intercellular junctions (immunofluorescent labelling of E-cadherin). As for the experimental part:
as §1

The structures appear in SMILES notation.

For the compound `C[C@@H](N)[C@H]1CC[C@H](C(=O)Nc2ccncc2)CC1` [Y-27632], in assay [1] (SW620 cells after treatment with Y-27632, FIG. 3B), the “level of invasion, compared with CoN normal colon cells (in words)” value was “very low level of invasion, comparable to that of CoN normal colon cells”. Moreover, the “invasive capacity (in words)” value in assay [1] (SW620 cells treated with Y-27632, FIG. 3B) is “drastically reduce their invasive capacity”. Also, the “location of E-cadherin at the junctions (in words)” value in assay [2] is “causes correct relocation of E-cadherin at the junctions”; in assay [3], “causes correct relocation of E-cadherin at the junctions”; in assay [5] (SW620, Y-27632 10 μM for 48 hours, FIG. 1) it was “causes correct relocation of E-cadherin at the junctions”. The “percentage of flat cells” value in assay [4] (SW620 cells after treatment with Y-27632, FIG. 2A (control 30%)) stood at 90%. Besides, the “percentage of cells retaining a round phenotype” value in assay [4] (SW620 cells after treatment with Y-27632, FIG. 2A (control 70%)) was found to be 10%. Moreover, the “spreading ability of the cells (in words)” value in assay [4] (SW620 cells, FIG. 2A) is on record as “enhances the spreading ability”. Further, in assay [5] (SW620 cells after treatment with Y-27632, FIG. 2B (control 22%)), the “percentage of cells capable of forming E-cadherin type junctions” value was 52%. In addition, the “formation of E-cadherin dependent junctions (in words)” value in assay [5] (SW620 cells, FIG. 1B and FIG. 2B) was “enhances”.
